In one test the target is ATR/ATRIP complex (Homo sapiens (Human), UniProt Q13535). The test is described as follows: ATR/ATRIP enzymatic assay (Caliper-based). In kind it is biochemical. Conditions: FAM-labeled RAD17 peptide, ATP; read-out: ATR/ATRIP Enzyme IC50. The procedure: Human full-length FLAG-TEV-ATR and His6-ATRIP were co-expressed in HEK293 cells. […] The sample was loaded into a column, and then washed with buffer A three times. Protein was subsequently eluted with 2 ml of buffer B (buffer A+200 μg/ml 3×FLAG peptide).
The ability of new chemical matter to inhibit the ATR catalytic activity in this ATR/ATRIP complex was assessed using a Caliper-based assay. A 2× enzyme solution (i.e., 4 nM enzyme) was prepared using 1× Kinase Reaction Buffer (25 mM HEPES pH 8, 0.0055% Brij-35, 10 mM MnCl2, and 1 mM DTT). […] 10 μL of the 2× enzyme solution was transferred to an assay plate containing 60 nL of test compound (from a 3× serial dilution) in 100% DMSO. Following a 30 minute incubation at 28° C., 10 μL of the 2× peptide solution was then transferred to the same assay plate. The reaction was allowed to incubate at 28° C. for 6 hours. After adding […] of stop buffer (100 mM HEPES pH 7.5, 0.015% Brij-35, 0.2% Coating-3 Reagent (PerkinElmer, catalog # PN760050), and 50 mM EDTA), data were collected on a Caliper instrument. Conversion values were converted to inhibition values via the following equation: % inhibition=(max−conversion)/(max−min)*100, whereby “max” corresponds to the DMSO control and “min” corresponds to the low control. IC50 values were calculated using the following equation in XLFit: Y=Bottom+(Top−Bottom)/1+(IC50/X)^HillSlope).

Test [1] relates to ATR-driven phosphorylation of Chk1 kinase at Serine 345 in HT-29 cells. The test is described as follows: pCHK1 cellular assay (CHK1 p-Ser345 AlphaScreen SureFire). Conditions: Homo sapiens, HT-29, read-out: pCHK1 Cell IC50. Background: In Alpha technology, singlet oxygen from a donor bead excites a nearby acceptor bead.
Procedure: The microplate was incubated overnight (approximately 20 hours) at 37° C. with 5% CO2 and ambient 02. Stock solutions of the test compounds were prepared in 100% DMSO (Sigma, Catalog # D2650) and serially diluted 1:3 using 100% DMSO. Compounds were additionally diluted 1:33 in culture medium, and 10 ul/well were transferred to the tissue culture plate. Following the compound addition the microplate was incubated at 37° C. for 90 minutes. […] The cells were then washed with PBS and lysed using 10 uL/well […] ® Kit lysis buffer diluted to 1× in water (PerkinElmer Catalog # TGRCHK1S50K), with mixing on an orbital shaker at 500 rpm for 20 min at RT. Lysates were frozen at −20° C. overnight.
The pCHK1 ALPHASCREEN® signal was measured using an ENVISION® plate reader (PerkinElmer). IC50 values were calculated using a four-parameter logistic curve fit using Genedata Screener software. Percent of control for each compound concentration was calculated by the following formula: 100*(Compound-Min)/(Max-Min) where “Max” is the high control, DMSO, and “Min” is the low control, 5 uM ATR inhibitor.

Chain of ATR/ATRIP complex (Q13535 whole entry): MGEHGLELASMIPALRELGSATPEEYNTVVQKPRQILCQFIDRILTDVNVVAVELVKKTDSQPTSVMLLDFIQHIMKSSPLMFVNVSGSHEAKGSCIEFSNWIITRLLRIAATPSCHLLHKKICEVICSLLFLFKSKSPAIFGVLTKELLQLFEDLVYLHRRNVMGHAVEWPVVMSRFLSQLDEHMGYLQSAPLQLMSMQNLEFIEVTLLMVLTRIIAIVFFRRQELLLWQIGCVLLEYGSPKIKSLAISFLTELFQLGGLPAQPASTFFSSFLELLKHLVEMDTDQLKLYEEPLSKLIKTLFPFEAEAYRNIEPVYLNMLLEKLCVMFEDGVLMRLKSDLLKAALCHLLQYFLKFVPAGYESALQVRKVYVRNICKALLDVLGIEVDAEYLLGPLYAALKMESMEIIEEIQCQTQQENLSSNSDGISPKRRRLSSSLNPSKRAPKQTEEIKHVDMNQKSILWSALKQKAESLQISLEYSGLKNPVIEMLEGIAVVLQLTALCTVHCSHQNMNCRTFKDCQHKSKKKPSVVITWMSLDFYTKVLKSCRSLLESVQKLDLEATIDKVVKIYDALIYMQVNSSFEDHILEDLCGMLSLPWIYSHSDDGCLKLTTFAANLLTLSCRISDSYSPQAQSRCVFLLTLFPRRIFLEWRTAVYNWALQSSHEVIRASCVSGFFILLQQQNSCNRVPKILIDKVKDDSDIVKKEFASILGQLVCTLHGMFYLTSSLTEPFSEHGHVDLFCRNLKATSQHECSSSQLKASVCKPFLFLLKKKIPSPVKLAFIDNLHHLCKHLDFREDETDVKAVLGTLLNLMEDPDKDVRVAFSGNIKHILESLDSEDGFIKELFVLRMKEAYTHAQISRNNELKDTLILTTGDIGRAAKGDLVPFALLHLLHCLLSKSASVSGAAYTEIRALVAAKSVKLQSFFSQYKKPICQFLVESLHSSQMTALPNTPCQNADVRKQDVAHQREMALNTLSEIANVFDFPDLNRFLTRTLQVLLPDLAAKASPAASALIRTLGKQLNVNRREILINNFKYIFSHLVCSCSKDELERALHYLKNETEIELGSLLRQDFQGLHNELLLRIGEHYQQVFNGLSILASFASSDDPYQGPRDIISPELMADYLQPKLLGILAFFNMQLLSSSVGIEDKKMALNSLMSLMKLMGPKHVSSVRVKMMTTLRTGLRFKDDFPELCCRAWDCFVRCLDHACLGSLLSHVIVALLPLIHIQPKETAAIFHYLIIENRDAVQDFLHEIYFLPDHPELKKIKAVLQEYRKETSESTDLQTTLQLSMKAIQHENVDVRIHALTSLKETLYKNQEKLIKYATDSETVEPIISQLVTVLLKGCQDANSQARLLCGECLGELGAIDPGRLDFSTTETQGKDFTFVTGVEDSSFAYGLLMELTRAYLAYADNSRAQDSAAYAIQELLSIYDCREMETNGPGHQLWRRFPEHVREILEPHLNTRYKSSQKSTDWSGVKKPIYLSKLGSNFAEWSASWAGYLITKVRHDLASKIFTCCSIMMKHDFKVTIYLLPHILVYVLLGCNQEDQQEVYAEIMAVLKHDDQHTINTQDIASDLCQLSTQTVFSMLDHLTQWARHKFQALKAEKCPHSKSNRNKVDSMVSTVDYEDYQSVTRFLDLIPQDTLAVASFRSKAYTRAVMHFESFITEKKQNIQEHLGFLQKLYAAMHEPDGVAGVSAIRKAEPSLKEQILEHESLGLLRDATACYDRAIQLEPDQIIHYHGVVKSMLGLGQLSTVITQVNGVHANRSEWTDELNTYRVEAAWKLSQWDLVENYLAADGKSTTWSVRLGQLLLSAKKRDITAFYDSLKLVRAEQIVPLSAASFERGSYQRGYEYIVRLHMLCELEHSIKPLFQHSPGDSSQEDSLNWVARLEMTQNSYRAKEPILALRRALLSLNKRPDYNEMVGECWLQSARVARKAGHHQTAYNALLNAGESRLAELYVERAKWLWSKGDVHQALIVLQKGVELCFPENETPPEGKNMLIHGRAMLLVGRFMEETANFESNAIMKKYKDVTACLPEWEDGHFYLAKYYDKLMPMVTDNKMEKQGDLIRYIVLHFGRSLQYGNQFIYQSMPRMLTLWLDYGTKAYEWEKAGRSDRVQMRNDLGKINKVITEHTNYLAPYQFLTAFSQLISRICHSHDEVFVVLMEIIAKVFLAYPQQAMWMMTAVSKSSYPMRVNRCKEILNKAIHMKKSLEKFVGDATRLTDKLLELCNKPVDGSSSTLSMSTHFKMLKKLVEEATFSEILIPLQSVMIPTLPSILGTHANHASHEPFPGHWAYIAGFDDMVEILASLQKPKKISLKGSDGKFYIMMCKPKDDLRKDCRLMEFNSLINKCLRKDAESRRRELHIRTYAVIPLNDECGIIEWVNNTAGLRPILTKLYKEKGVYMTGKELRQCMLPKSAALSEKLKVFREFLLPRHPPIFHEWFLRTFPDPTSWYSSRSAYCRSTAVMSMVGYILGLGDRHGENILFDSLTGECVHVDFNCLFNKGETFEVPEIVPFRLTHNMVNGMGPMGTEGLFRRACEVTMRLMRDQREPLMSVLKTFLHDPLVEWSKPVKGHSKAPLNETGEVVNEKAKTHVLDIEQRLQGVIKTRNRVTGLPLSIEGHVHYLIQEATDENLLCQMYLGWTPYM
Chain of ATR/ATRIP complex (Q8WXE1 whole entry partner): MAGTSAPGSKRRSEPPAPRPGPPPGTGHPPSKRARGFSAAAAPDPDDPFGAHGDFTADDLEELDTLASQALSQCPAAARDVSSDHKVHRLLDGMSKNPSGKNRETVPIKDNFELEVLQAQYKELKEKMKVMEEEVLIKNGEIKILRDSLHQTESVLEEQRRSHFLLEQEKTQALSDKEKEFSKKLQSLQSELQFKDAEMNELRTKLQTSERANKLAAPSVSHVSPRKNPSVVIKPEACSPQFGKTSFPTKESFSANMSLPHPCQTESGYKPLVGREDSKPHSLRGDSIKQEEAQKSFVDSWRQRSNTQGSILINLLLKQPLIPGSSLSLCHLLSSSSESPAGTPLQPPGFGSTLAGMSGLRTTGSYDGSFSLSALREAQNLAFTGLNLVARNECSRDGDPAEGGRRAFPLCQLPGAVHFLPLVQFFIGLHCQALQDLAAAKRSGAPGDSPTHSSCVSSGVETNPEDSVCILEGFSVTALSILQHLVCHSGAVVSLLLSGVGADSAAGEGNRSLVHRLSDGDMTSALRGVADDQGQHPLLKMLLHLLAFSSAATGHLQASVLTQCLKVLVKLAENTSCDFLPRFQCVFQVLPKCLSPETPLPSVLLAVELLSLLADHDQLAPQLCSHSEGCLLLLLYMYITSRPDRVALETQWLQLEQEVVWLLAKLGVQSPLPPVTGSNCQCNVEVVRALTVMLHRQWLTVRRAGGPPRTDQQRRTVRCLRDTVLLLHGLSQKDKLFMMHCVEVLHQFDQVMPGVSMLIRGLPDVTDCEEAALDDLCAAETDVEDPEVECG

Regarding `C[C@@H]1COCCN1c1cc(C2CCCS2(=O)=O)nc(-c2cc(Cl)nc3[nH]ccc23)n1` (single isomer, unassigned) [Example 5a], the IC50 at ATR/ATRIP complex came to 31 nM; in test [1], 177 nM.

Take `C[C@@H]1COCCN1c1cc([C@H]2CCCS2(=O)=O)nc(-c2cc(Cl)nc3[nH]ccc23)n1` (single isomer, unassigned) [Example 5b]: the IC50 amounted to 72 nM at ATR/ATRIP complex and 435 nM in test [1].

As for `CCN1CCCN(c2cc(N3CCOC[C@H]3C)nc(-c3ccnc4[nH]ccc34)n2)S1(=O)=O` [Example 1, (R)-2-Ethyl-6-(6-(3-methylmorpholino)-2-(1H-pyrrolo[2,3-b]pyridin-4-yl)pyrimidin-4-yl)-1,2,6-thiadiazinane 1,1-dioxide], the IC50 on ATR/ATRIP complex is 7 nM; in test [1], 95 nM.

For `C[C@@H]1COCCN1c1cc(C2CCN(C)C2=O)nc(-c2ccnc3[nH]ccc23)n1` (stereo partly drawn) [Example 3, 1-Methyl-3-(6-((R)-3-methylmorpholino)-2-(1H-pyrrolo[2,3-b]pyridin-4-yl)pyrimidin-4-yl)pyrrolidin-2-one], the IC50 was found to be 48 nM at ATR/ATRIP complex and 496 nM in test [1].

Take `C[C@@H]1COCCN1c1cc(N2CCCN(C)S2(=O)=O)nc(-c2cc(Cl)nc3[nH]ccc23)n1` [Example 6, (R)-2-(2-(6-Chloro-1H-pyrrolo[2,3-b]pyridin-4-yl)-6-(3-methylmorpholino)pyrimidin-4-yl)-6-methyl-1,2,6-thiadiazinane 1,1-dioxide]: the IC50 at ATR/ATRIP complex stood at 52 nM; in test [1], 505 nM.

For `CC(C)N1CCCN(c2cc(N3CCOC[C@H]3C)nc(-c3ccnc4[nH]ccc34)n2)S1(=O)=O` [Example 8, 2-{6-[(3R)-3-Methylmorpholin-4-yl]-2-{1H-pyrrolo[2,3-b]pyridin-4-yl}pyrimidin-4-yl}-6-(propan-2-yl)-1λ^6,2,6-thiadiazinane-1,1-dione], the IC50 was 7 nM at ATR/ATRIP complex and 301 nM in test [1].

On to `CCN1CCCN(c2cc(N3CCOC[C@H]3C)nc(-c3cc(Cl)nc4[nH]ccc34)n2)S1(=O)=O` [Example 9, 2-(2-{6-Chloro-1H-pyrrolo[2,3-b]pyridin-4-yl}-6-[(3R)-3-methylmorpholin-4-yl]pyrimidin-4-yl)-6-ethyl-1λ^6,2,6-thiadiazinane-1,1-dione], for which the IC50 at ATR/ATRIP complex came out at 115 nM; in test [1], 570 nM.

For the molecule `C[C@@H]1COCCN1c1cc(C2CCCN(S(C)(=O)=O)C2)nc(-c2ccnc3[nH]ccc23)n1` (stereo partly drawn) [Example 10, (3R)-4-[6-(1-Methane-sulfonylpiperidin-3-yl)-2-{1H-pyrrolo[2,3-b]pyridin-4-yl}pyrimidin-4-yl]-3-methylmorpholine], the IC50 on ATR/ATRIP complex is 7 nM; in test [1], 134 nM.

Turning to `C[C@@H]1COCCN1c1cc(C2CCN(S(C)(=O)=O)C2)nc(-c2ccnc3[nH]ccc23)n1` (stereo partly drawn) [Example 11, (3R)-4-[6-(1-Methane-sulfonylpyrrolidin-3-yl)-2-{1H-pyrrolo[2,3-b]pyridin-4-yl}pyrimidin-4-yl]-3-methylmorpholine], the IC50 was 8 nM on ATR/ATRIP complex and 97 nM in test [1].

Regarding `CC(=O)N1CCC(c2cc(N3CCOC[C@H]3C)nc(-c3ccnc4[nH]ccc34)n2)CC1` [Example 12, 1-(4-{6-[(3R)-3-Methylmorpholin-4-yl]-2-{1H-pyrrolo[2,3-b]pyridin-4-yl}pyrimidin-4-yl}piperidin-1-yl) ethan-1-one], the IC50 on ATR/ATRIP complex came to 24 nM; in test [1] it was 128 nM.

As to `COC(=O)N1CCC(c2cc(N3CCOC[C@H]3C)nc(-c3ccnc4[nH]ccc34)n2)CC1` [Example 13, Methyl 4-{6-[(3R)-3-methylmorpholin-4-yl]-2-{1H-pyrrolo[2,3-b]pyridin-4-yl}pyrimidin-4-yl}piperidine-1-carboxylate], the IC50 at ATR/ATRIP complex was found to be 10 nM; in test [1], 186 nM.

For `C[C@@H]1COCCN1c1cc(C2CCOCC2)nc(-c2ccnc3[nH]ccc23)n1` [Example 14, (3R)-3-Methyl-4-[6-(oxan-4-yl)-2-{1H-pyrrolo[2,3-b]-pyridin-4-yl}pyrimidin-4-yl]-morpholine], the IC50 came to 17 nM on ATR/ATRIP complex and 166 nM in test [1].

With `CC(=O)N1CCCC(c2cc(N3CCOC[C@H]3C)nc(-c3ccnc4[nH]ccc34)n2)C1` (stereo partly drawn) [Example 15, 1-(3-{6-[(3R)-3-Methylmorpholin-4-yl]-2-{1H-pyrrolo[2,3-b]pyridin-4-yl}pyrimidin-4-yl}piperidin-1-yl) ethan-1-one], the IC50 came to 10 nM at ATR/ATRIP complex and 210 nM in test [1].

Regarding `CC(=O)N1CCC(c2cc(N3CCOC[C@H]3C)nc(-c3ccnc4[nH]ccc34)n2)C1` (stereo partly drawn) [Example 16, 1-(3-{6-[(3R)-3-Methyl-morpholin-4-yl]-2-{1H-pyrrolo[2,3-b]pyridin-4-yl}-pyrimidin-4-yl}pyrrolidin-1-yl) ethan-1-one], the IC50 on ATR/ATRIP complex is 19 nM; in test [1], 242 nM.

For `COC(=O)N1CCC(c2cc(N3CCOC[C@H]3C)nc(-c3ccnc4[nH]ccc34)n2)C1` (stereo partly drawn) [Example 17, Methyl 3-{6-[(3R)-3-methylmorpholin-4-yl]-2-{1H-pyrrolo[2,3-b]pyridin-4-yl}pyrimidin-4-yl}-pyrrolidine-1-carboxylate], the IC50 on ATR/ATRIP complex is 10 nM; in test [1], 138 nM.

Turning to `CNC(=O)N1CCC(c2cc(N3CCOC[C@H]3C)nc(-c3ccnc4[nH]ccc34)n2)C1` (stereo partly drawn) [Example 18, N-methyl-3-{6-[(3R)-3-methylmorpholin-4-yl]-2-{1H-pyrrolo[2,3-b]pyridin-4-yl}pyrimidin-4-yl}-pyrrolidine-1-carboxamide], the IC50 at ATR/ATRIP complex came to 14 nM; in test [1], 191 nM.

Take `C[C@@H]1COCCN1c1cc(C2CCCN(C)C2=O)nc(-c2ccnc3[nH]ccc23)n1` (stereo partly drawn) [Example 19, 1-Methyl-3-{6-[(3R)-3-methylmorpholin-4-yl]-2-{1H-pyrrolo[2,3-b]pyridin-4-yl}pyrimidin-4-yl} piperidin-2-one]: the IC50 at ATR/ATRIP complex was determined as 47 nM; in test [1] it was 921 nM.

Take `CCC(=O)N1CCC(c2cc(N3CCOC[C@H]3C)nc(-c3ccnc4[nH]ccc34)n2)CC1` [Example 20, 1-(4-{6-[(3R)-3-Methylmorpholin-4-yl]-2-{1H-pyrrolo[2,3-b]pyridin-4-yl}pyrimidin-4-yl}piperidin-1-yl) propan-1-one]: the IC50 came out at 15 nM at ATR/ATRIP complex and 51 nM in test [1].

Consider `C[C@@H]1COCCN1c1cc(C2CCN(C(=O)C3CC3)CC2)nc(-c2ccnc3[nH]ccc23)n1` [Example 21, (3R)-4-[6-(1-Cyclopropanecarbonylpiperidin-4-yl)-2-{1H-pyrrolo[2,3-b]pyridin-4-yl}pyrimidin-4-yl]-3-methylmorpholine], for which the IC50 at ATR/ATRIP complex came out at 22 nM; in test [1] it was 82 nM.

Turning to `CCOC(=O)N1CCC(c2cc(N3CCOC[C@H]3C)nc(-c3ccnc4[nH]ccc34)n2)CC1` [Example 22, Ethyl 4-{6-[(3R)-3-methylmorpholin-4-yl]-2-{1H-pyrrolo[2,3-b]pyridin-4-yl}pyrimidin-4-yl} piperidine-1-carboxylate], the figures for the IC50 (on ATR/ATRIP complex; in test [1]) were 15 nM and 109 nM, respectively.

As to `C[C@@H]1COCCN1c1cc(C2CCN(S(=O)(=O)C3CC3)CC2)nc(-c2ccnc3[nH]ccc23)n1` [Example 23, (3R)-4-{6-[1-(Cyclopropane-sulfonyl)piperidin-4-yl]-2-{1H-pyrrolo[2,3-b]pyridin-4-yl}pyrimidin-4-yl}-3-methylmorpholine], the results for the IC50 (at ATR/ATRIP complex; in test [1]) were 5 nM and 21 nM, respectively.

For the molecule `COCC(=O)N1CCC(c2cc(N3CCOC[C@H]3C)nc(-c3ccnc4[nH]ccc34)n2)CC1` [Example 24, 2-Methoxy-1-(4-{6-[(3R)-3-methylmorpholin-4-yl]-2-{1H-pyrrolo[2,3-b]pyridin-4-yl}pyrimidin-4-yl}piperidin-1-yl) ethan-1-one], the IC50 at ATR/ATRIP complex amounted to 13 nM; in test [1] it was 85 nM.

For `C[C@@H]1COCCN1c1cc(C2CCN(C(=O)CC3CC3)CC2)nc(-c2ccnc3[nH]ccc23)n1` [Example 25, 2-Cyclopropyl-1-(4-{6-[(3R)-3-methylmorpholin-4-yl]-2-{1H-pyrrolo[2,3-b]pyridin-4-yl}pyrimidin-4-yl}piperidin-1-yl) ethan-1-one], the IC50 on ATR/ATRIP complex was determined as 16 nM; in test [1], 139 nM.

`C[C@@H]1COCCN1c1cc(C2CCCCS2(=O)=O)nc(-c2ccnc3[nH]ccc23)n1` (stereo partly drawn) [Example 26, 2-{6-[(3R)-3-Methyl-morpholin-4-yl]-2-{1H-pyrrolo[2,3-b]pyridin-4-yl}pyrimidin-4-yl}-1λ^6-thiane-1,1-dione]: the IC50 amounted to 8 nM at ATR/ATRIP complex and 86 nM in test [1].

Take `CC(C)OC(=O)N1CCC(c2cc(N3CCOC[C@H]3C)nc(-c3ccnc4[nH]ccc34)n2)CC1` [Example 27, Propan-2-yl 4-{6-[(3R)-3-methylmorpholin-4-yl]-2-{1H-pyrrolo[2,3-b]pyridin-4-yl}pyrimidin-4-yl}piperidine-1-carboxylate]: the IC50 came to 15 nM on ATR/ATRIP complex and 405 nM in test [1].

Values taken from patent publication US10800774B2, “Heterocyclic inhibitors of ATR kinase” (Board of Regents, The University of Texas System, priority 2017, dated 2020).
